Assay type in all cases: binding
Assay [1] deals with T1, Ran (RanGTP) in the snRNA export complex with CRM1, PHAX, CBC (Homo sapiens, UniProt P62826, Q69L).
T1 construct: Ran Q69L as His-tag fusion from E. coli, loaded with GTP; His-CRM1; CK2-phosphorylated full-length PHAX; CBP80ΔNLS–CBP20; capped 14-nt RNA; with Exportin-1; Phosphorylated adapter RNA export protein
The experiment in a line: cryo-EM structure of the complex. The note with it: Mg2+ present; Ran nucleotide site; complex with CRM1, phosphorylated PHAX, CBC and capped RNA.

For a further assay, the target named is T2, CBC (CBP80ΔNLS–CBP20) (Homo sapiens, UniProt P52298).
T2 construct: gene NCBP2; heterodimer; CBP80ΔNLS (lacks N-terminal 19 residues) from High Five insect cells; CBP20 as His-GST fusion from E. coli, tag cleaved by TEV
T2 sequence (P52298 2-156): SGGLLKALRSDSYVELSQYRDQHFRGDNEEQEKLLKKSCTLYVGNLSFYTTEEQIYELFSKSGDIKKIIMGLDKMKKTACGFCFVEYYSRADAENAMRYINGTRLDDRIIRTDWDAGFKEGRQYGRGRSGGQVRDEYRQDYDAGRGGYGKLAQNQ
T2 sequence (Q09161 20-790 partner): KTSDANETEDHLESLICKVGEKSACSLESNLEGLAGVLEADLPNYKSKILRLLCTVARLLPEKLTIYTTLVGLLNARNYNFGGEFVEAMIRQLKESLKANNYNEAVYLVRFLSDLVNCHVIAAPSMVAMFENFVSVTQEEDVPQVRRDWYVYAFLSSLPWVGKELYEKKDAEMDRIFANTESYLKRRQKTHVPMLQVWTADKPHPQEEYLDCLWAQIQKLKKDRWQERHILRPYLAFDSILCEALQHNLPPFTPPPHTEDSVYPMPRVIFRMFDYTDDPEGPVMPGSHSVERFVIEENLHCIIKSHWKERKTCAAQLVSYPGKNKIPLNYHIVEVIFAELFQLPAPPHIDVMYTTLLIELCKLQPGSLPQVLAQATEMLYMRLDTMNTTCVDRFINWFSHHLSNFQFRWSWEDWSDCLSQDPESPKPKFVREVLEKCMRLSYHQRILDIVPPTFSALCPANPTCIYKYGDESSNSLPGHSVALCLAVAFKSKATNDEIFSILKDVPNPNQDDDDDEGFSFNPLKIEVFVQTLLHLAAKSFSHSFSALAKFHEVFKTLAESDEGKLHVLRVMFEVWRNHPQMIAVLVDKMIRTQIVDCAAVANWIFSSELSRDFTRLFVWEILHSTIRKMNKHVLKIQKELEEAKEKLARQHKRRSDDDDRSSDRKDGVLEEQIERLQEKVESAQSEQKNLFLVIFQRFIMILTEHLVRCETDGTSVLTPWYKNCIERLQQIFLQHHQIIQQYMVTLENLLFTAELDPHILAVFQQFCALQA
The experiment in a line: isothermal titration calorimetry.

For assay [2], the target named is T3, CBC in complex with PHAX^103–196 (Homo sapiens, UniProt P52298).
T3 construct: gene NCBP2; CBC (CBP80ΔNLS lacking N-terminal 19 residues; CBP20, tag cleaved) plus PHAX residues 103-196 made as His-MBP fusion in E. coli, not phosphorylated; Phosphorylated adapter RNA export protein
T3 sequence (Q9H814 103-196 partner, one chain of several): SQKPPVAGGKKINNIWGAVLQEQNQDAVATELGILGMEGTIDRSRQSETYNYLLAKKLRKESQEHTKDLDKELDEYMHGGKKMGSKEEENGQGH
Nature of the assay: isothermal titration calorimetry. A general note: In ITC the heat of successive injections is recorded.

For `Nc1nc2c(ncn2[C@@H]2O[C@H](COP(=O)(O)OP(=O)(O)OP(=O)(O)O)[C@@H](O)[C@H]2O)c(=O)[nH]1` [GTP], the “cryo-EM structure of the complex” value in assay [1] is listed as “the catalytic mutant of Ran (Q69L) bound to GTP”.

As a reminder, the Kd is the free concentration of one partner at which half of the binding sites on the other are occupied at equilibrium, for simple one-to-one binding. Low values mean tighter binding, high ones weaker binding. For `C[n+]1cn([C@@H]2O[C@H](COP(=O)(O)OP(=O)(O)OP(=O)(O)O)[C@@H](O)[C@H]2O)c2nc(N)[nH]c(=O)c21` [m^7GTP], the Kd at CBC (CBP80ΔNLS–CBP20) was 300 nM. Consider `C[n+]1cn([C@@H]2O[C@H](COP(=O)(O)OP(=O)(O)OP(=O)(O)OC[C@H]3O[C@@H](n4cnc5c(=O)[nH]c(N)nc54)[C@H](O)[C@@H]3O)[C@@H](O)[C@H]2O)c2nc(N)[nH]c(=O)c21` [m^7GpppG], for which the Kd on CBC (CBP80ΔNLS–CBP20) was 96 nM; in assay [2] it was 100 nM.

The values above are taken from publication PMC12350170, “Structural basis for the synergistic assembly of the snRNA export complex” (Nature Structural & Molecular Biology, 2025).
